Experimental data from ChEMBL document CHEMBL5113527, “First-in-Class Hydrazide-Based HDAC6 Selective Inhibitor with Potent Oral Anti-Inflammatory Activity by Attenuating NLRP3 Inflammasome Activation” (J Med Chem, 2022).
Calls of active or inactive are those of the source. No cut-off for these calls is given here.

Experiments:
HEK293 = assay: Cytotoxicity against human HEK293 cells assessed as reduction in cell viability at 100 uM measured after 48 hrs by spectrophotometric analysis; type: toxicity, cell-based; conditions: hek293, 48 h
[1] = target: T1, Protein deacetylase HDAC6 (Homo sapiens, UniProt Q9UBN7); assay: Inhibition of recombinant HDAC6 (unknown origin) using Boc-Lys(acetyl)-AMC as substrate preincubated for 0 min followed by substrate addition and measured after 2 hrs by fluorescence based microplate reader analysis
T1 sequence (Q9UBN7 whole entry): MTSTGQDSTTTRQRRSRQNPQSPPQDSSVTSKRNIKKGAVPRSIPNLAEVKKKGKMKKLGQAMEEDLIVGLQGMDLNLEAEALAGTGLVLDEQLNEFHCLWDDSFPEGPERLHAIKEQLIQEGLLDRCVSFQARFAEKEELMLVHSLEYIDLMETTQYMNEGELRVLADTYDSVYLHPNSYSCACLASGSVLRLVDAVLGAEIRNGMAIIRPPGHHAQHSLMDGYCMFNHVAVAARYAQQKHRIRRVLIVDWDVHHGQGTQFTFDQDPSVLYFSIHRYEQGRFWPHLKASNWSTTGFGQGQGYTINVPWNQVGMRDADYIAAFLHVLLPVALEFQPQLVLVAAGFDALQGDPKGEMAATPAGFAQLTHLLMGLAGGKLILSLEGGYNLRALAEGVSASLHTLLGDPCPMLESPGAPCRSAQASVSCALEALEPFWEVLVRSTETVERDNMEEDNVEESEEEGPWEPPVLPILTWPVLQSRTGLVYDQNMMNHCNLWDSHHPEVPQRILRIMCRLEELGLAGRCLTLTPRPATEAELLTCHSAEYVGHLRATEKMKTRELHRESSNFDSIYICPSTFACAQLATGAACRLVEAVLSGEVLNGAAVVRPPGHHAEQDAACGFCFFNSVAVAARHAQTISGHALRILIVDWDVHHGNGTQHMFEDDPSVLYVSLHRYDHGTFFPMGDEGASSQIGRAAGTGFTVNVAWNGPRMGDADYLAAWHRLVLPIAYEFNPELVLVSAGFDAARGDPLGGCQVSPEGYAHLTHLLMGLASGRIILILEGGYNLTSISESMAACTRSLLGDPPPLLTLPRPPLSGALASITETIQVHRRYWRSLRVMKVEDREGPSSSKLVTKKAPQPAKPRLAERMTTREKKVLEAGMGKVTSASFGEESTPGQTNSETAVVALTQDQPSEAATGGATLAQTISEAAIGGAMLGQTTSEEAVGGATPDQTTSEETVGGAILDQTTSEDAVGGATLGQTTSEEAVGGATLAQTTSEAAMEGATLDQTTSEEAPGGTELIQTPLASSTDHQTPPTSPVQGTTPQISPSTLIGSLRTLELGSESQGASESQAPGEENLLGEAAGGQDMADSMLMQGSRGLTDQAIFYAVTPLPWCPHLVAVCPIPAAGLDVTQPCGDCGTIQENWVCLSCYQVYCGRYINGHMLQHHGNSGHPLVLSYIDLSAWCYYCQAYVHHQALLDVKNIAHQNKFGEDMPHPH

[2] = AUC(0 to infinity) in CD-1 mouse at 5 mg/kg, iv measured after 0.083 to 24 hrs by LC-MS/MS analysis; type: ADME, organism-based; set-up: dose 5 mg/kg, time upper 24 hrs, time lower 0.083 hrs, route iv; conditions: in vivo
Histone deacetylase 2 = Histone deacetylase 2 (Homo sapiens, UniProt Q92769); assay: Binding affinity to recombinant HDAC2 (unknown origin) assessed as inhibition constant using Boc-Lys(acetyl)-AMC as substrate preincubated for 1 hr followed by substrate addition and measured after 2 hrs by fluorescence based microplate reader analysis
Histone deacetylase 2, sequence (Q92769 whole entry): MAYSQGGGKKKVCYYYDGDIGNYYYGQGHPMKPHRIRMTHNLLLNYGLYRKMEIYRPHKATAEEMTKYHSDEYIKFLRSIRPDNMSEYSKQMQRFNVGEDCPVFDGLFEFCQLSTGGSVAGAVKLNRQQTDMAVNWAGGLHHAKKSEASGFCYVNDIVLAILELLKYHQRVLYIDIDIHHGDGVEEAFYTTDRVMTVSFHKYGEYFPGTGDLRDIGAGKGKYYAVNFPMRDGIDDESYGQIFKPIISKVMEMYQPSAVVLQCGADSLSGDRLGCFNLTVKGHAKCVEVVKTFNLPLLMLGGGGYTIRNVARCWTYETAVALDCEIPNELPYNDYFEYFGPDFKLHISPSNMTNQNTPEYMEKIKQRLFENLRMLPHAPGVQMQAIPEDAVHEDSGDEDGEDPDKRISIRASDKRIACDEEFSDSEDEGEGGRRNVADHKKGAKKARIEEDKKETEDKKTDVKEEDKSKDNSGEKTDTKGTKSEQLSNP

J774.A1 = assay: Inhibition of NLRP3 inflammasome activation in mouse J774.A1 cells assessed as cleavage of pro-caspase 1 to p20 measured at 5 to 20 microM after […] by Western blot analysis; type: functional, cell-based; conditions: dose 5-20 µM, DDE = dose-dependent effect
[3] = target: T2, Protein deacetylase HDAC6 (Homo sapiens) (UniProt Q9UBN7); assay: Inhibition of HDAC6 in human MV4-11 cells assessed as decrease in hyper acetylation of histone alpha tubulin preincubated for 6 hrs followed by compound washout measured after 1 hr by western blot analysis; type: cell-based
T2 sequence (whole entry): T1 sequence (Q9UBN7 whole entry)

[4] = target: T1, Protein deacetylase HDAC6; assay: Inhibition of recombinant HDAC6 (unknown origin) using Boc-Lys(acetyl)-AMC as substrate preincubated for 60 mins followed by substrate addition and measured after 2 hrs by fluorescence based microplate reader analysis
[5] = target: T1, Protein deacetylase HDAC6; assay: Inhibition of recombinant HDAC6 (unknown origin) using Boc-Lys(acetyl)-AMC as substrate preincubated for 15 mins followed by substrate addition and measured after 2 hrs by fluorescence based microplate reader analysis
[6] = Ratio of drug concentration in brain to plasma of CD-1 mouse measured after 4 hrs by LC-MS/MS analysis; type: ADME; conditions: read-out: BPR
L02 = assay: Cytotoxicity against human HL7702 cells assessed as reduction in cell viability at 100 uM measured after 48 hrs by spectrophotometric analysis; type: toxicity, cell-based; conditions: l02, 48 h
[7] = target: T1, Protein deacetylase HDAC6; assay: Binding affinity to recombinant HDAC6 (unknown origin) assessed as inhibition constant using Boc-Lys(acetyl)-AMC as substrate preincubated for 1 hr followed by substrate addition and measured after 2 hrs by fluorescence based microplate reader analysis
NCM460 = assay: Cytotoxicity against human NCM460 cells assessed as reduction in cell viability at 100 uM measured after 48 hrs by spectrophotometric analysis; type: toxicity, cell-based; conditions: ncm460, 48 h
[8] = Ratio of drug concentration in brain to plasma of CD-1 mouse measured after 1 hrs by LC-MS/MS analysis; type: ADME
[9] = Plasma concentration in CD-1 mouse at 20 mg/kg measured after 2 hrs by LC-MS/MS analysis; type: ADME, organism-based
[10] = Brain concentration in CD-1 mouse at 20 mg/kg measured after 0.5 hrs by LC-MS/MS analysis; type: ADME, organism-based; conditions: read-out: Ct
Mus musculus = assay: Inhibition of LPS-induced endotoxic shock in C57BL/6 mouse model serum assessed as decrease in IL-1beta level at 20 mg/kg, po measured after 12 hrs; type: functional, organism-based

Question: What does the source list for `CCNNC(=O)c1ccc(CN2c3ccccc3C=Cc3ccncc32)cc1`?
Answer: Activity (HEK293): Non-Toxic; IC50 [1]: 461 nM; AUC(0-inf) [2]: 2760 ng·h/mL; Ki (Histone deacetylase 2): 1040 nM; Activity (J774.A1): Dde; inhibition [3]: Active; IC50 [4]: 32.5 nM; IC50 [5]: 257 nM; Kp at 4 h [6]: 1.51; Activity (L02): Non-Toxic; Ki [7]: 3 nM; Activity (NCM460): Non-Toxic; Kp at 1 h [8]: 1.26; concentration at 2 h [9]: 2320 ng/mL; concentration at 0.5 h [10]: 11300 ng/mL; Activity (Mus musculus): Active
